According to ChEMBL document CHEMBL4385605, “Synthesis and Structure-Affinity Relationships of Spirocyclic Benzopyrans with Exocyclic Amino Moiety” (J Med Chem, 2019):

Assays:
CYP2D6 = CYP2D6 (Homo sapiens, UniProt P10635); test: Inhibition of recombinant human CYP2D6 at 1 uM by fluorescence assay relative to control; format: ADME
[1] = molecular target: T1, Alpha-1A adrenergic receptor (Homo sapiens) (UniProt P35348); test: Binding affinity to alpha 1a adrenergic receptor (unknown origin) at 1 uM relative to control
T1 sequence (whole entry): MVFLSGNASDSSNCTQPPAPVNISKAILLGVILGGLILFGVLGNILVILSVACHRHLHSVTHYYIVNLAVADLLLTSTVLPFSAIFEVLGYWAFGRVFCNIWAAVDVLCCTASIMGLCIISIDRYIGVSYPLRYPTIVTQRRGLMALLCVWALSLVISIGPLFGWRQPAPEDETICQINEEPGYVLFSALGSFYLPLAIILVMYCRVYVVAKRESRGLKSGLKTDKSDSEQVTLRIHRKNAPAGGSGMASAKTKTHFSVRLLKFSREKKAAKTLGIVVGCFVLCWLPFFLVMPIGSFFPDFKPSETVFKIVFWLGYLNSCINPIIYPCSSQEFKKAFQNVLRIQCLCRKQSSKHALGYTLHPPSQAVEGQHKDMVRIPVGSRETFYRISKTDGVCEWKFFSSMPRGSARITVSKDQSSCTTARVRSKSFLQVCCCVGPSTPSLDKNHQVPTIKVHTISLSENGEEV

[2] = molecular target: T2, 5-hydroxytryptamine receptor 1A (Homo sapiens) (UniProt P08908); test: Binding affinity to 5-HT1AR (unknown origin) at 1 uM relative to control
T2 sequence (whole entry): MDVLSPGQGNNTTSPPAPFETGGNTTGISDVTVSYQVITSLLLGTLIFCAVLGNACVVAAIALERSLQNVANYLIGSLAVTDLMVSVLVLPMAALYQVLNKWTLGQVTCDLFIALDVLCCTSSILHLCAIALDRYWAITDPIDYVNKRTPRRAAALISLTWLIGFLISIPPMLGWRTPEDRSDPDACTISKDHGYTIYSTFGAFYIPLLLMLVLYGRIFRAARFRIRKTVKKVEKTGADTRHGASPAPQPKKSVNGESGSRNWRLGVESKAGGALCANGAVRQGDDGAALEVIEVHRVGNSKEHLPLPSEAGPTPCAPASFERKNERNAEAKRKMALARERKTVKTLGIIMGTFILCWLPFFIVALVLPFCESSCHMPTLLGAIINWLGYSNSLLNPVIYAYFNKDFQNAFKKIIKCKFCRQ

Sequence of CYP2D6 (P10635 whole entry): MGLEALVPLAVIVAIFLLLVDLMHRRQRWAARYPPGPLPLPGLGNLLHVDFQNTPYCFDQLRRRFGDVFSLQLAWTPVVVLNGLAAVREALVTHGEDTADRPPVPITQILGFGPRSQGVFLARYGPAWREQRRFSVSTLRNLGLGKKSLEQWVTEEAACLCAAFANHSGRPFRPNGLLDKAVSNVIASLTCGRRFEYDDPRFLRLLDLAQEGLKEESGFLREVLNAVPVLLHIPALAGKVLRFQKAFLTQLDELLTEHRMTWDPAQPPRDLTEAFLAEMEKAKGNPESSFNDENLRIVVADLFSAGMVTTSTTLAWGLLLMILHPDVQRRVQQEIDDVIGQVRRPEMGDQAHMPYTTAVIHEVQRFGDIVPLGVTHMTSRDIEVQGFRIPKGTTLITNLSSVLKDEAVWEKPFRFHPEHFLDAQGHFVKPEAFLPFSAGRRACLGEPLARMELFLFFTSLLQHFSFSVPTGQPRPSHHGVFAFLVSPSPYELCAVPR

Compound: COC1Cc2ccccc2[C@]2(CC[C@H](N(C)CC3CCCCC3)CC2)O1 (stereo partly drawn)
- inhibition at 1 µM (CYP2D6): > 90%
- Activity [1]: 68%
- Activity [2]: 60%
